Measurements from patent publication US9783505B2, “Substituted diaminopyrimidyl compounds, compositions thereof, and methods of treatment therewith” (Signal Pharmaceuticals, LLC, priority 2013, dated 2017).

Tests used:
His-PKC-theta = target: T1, His-PKC-theta (Homo sapiens, UniProt Q04759); experiment: PKC-theta Assay (384-well time resolved fluorescence, IMAP TR-FRET); assay type: biochemical; conditions: read-out: Act. Level (IC50 in the PKC-theta Assay)
T1 construct: His; purchased Invitrogen
Outline: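 Enzyme at 142 pM phosphorylated 200 nM Fam-S6 peptide with 10 μM ATP in 50 mM HEPES pH 7.6, 10 mM MgCl2, 1 mM DTT for 2 h at room temperature. Product was detected after overnight incubation with IMAP binding reagent and Tb donor by time-resolved FRET.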

PKC delta = target: T2, PKC delta (Homo sapiens, UniProt Q05655); experiment: PKC delta Assay (384-well time resolved fluorescence, IMAP TR-FRET); assay type: biochemical; conditions: selectivity for PKC-theta over PKC-delta
T2 construct: purchased Invitrogen
Outline: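 Phosphorylation of a Fam-labeled S6-derived peptide (200 nM) at 10 μM ATP by 1.5 nM kinase ran 2 hours at room temperature in HEPES pH 7.6 buffer containing MgCl2, DTT, Triton X-100, BSA and EDTA. Detection used IMAP progressive binding with Tb donor TR-FRET after overnight incubation.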

T1 sequence (Q04759 whole entry): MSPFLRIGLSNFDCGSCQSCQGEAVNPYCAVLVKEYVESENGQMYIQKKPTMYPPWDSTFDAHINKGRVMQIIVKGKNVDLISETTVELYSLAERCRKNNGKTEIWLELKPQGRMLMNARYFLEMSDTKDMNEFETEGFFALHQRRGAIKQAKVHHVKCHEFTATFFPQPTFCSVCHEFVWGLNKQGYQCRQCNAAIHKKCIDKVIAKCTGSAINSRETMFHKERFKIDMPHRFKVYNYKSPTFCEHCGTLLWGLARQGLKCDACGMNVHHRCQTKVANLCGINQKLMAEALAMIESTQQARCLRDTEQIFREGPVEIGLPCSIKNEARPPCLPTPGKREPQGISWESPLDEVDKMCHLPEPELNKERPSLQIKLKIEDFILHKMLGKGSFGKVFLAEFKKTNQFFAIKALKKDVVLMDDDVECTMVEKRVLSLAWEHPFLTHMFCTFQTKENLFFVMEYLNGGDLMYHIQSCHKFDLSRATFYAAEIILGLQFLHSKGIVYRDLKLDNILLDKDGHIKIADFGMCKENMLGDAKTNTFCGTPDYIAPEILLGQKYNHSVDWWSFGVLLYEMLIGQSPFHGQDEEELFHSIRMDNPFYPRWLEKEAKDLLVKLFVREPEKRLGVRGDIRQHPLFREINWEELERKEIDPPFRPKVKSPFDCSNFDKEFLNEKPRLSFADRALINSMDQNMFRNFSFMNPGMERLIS
T2 sequence (Q05655 whole entry): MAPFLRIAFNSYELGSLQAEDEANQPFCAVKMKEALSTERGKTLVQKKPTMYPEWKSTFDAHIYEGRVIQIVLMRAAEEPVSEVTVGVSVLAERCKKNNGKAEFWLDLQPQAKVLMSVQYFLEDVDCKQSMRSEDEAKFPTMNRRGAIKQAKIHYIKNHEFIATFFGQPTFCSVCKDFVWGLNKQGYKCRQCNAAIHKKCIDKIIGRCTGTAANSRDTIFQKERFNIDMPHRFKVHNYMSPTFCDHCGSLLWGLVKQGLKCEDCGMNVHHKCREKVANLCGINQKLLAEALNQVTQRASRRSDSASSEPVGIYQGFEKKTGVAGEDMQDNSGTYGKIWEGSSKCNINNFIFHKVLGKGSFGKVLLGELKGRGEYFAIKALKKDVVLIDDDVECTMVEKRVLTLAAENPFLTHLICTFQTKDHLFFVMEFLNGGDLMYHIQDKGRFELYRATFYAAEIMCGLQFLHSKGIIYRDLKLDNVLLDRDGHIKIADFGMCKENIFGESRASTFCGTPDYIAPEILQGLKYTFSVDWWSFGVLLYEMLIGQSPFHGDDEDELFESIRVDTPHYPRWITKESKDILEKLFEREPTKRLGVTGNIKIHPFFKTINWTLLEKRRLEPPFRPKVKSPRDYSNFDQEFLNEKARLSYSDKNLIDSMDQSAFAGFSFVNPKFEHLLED

SMILES | IC50 (His-PKC-theta) | Sel. Level (ratio of IC50 PKC-delta/IC50 PKC-theta) (PKC delta)
COCc1noc(CCNc2ncc(C#N)c(N[C@@H]3CC[C@H](O)C(C)(C)C3)n2)n1 [Cmpd 199] | 2 to 10 µM | H (selectivity level of 5-fold or less (selectivity level H))
Cc1nccnc1CCNc1ncc(C#N)c(N[C@H]2CC[C@@H](C(N)=O)CC2)n1 [Cmpd 321] | 2 to 10 µM | H (selectivity level of 5-fold or less (selectivity level H))
